Assays:
Assay in all cases: relative viability (nuclei count vs DMSO), 5 days (fraction); higher = more cells survive
Bosutinib + Lapatinib = compound: COc1cc(Nc2c(C#N)cnc3cc(OCCCN4CCN(C)CC4)c(OC)cc23)c(Cl)cc1Cl [Bosutinib] + CS(=O)(=O)CCNCc1ccc(-c2ccc3ncnc(Nc4ccc(OCc5cccc(F)c5)c(Cl)c4)c3c2)o1 [Lapatinib] (partner 2 µM)
How it was run: (§1)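 Lung cancer cell lines were pin-tool dosed in 1536-well plates on the day after seeding, with either a lone drug or a fixed anchor-drug dose plus five library-drug doses (not always all listed) in √10 steps. Nuclei were counted on 4× images after 5 days. Relative viability is the ratio of treated-well to vehicle-well nuclei counts, with each value a median of duplicate plates.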

Bosutinib + Pictilisib = compound: COc1cc(Nc2c(C#N)cnc3cc(OCCCN4CCN(C)CC4)c(OC)cc23)c(Cl)cc1Cl [Bosutinib] + CS(=O)(=O)N1CCN(Cc2cc3nc(-c4cccc5[nH]ncc45)nc(N4CCOCC4)c3s2)CC1 [Pictilisib] (partner 1 µM)
How it was run: as §1

Bosutinib + Luminespib = compound: COc1cc(Nc2c(C#N)cnc3cc(OCCCN4CCN(C)CC4)c(OC)cc23)c(Cl)cc1Cl [Bosutinib] + CCNC(=O)c1noc(-c2cc(C(C)C)c(O)cc2O)c1-c1ccc(CN2CCOCC2)cc1 [Luminespib] (partner 0.01 µM)
How it was run: as §1

Bosutinib + Palbociclib = compound: COc1cc(Nc2c(C#N)cnc3cc(OCCCN4CCN(C)CC4)c(OC)cc23)c(Cl)cc1Cl [Bosutinib] + CC(=O)c1c(C)c2cnc(Nc3ccc(N4CCNCC4)cn3)nc2n(C2CCCC2)c1=O [Palbociclib] (partner 0.5 µM)
How it was run: as §1

Bosutinib + Trametinib = compound: COc1cc(Nc2c(C#N)cnc3cc(OCCCN4CCN(C)CC4)c(OC)cc23)c(Cl)cc1Cl [Bosutinib] + CC(=O)Nc1cccc(-n2c(=O)n(C3CC3)c(=O)c3c(Nc4ccc(I)cc4F)n(C)c(=O)c(C)c32)c1 [Trametinib] (partner 0.02 µM)
How it was run: as §1

Row | Cell Line | relative viability (Bosutinib + Lapatinib; first compound 0.01 µM) | relative viability (Bosutinib + Lapatinib; first compound 0.03162 µM) | relative viability (Bosutinib + Lapatinib; first compound 0.1 µM) | relative viability (Bosutinib + Lapatinib; first compound 1 µM) | relative viability (Bosutinib + Pictilisib; first compound 0.01 µM) | relative viability (Bosutinib + Pictilisib; first compound 0.03162 µM) | relative viability (Bosutinib + Pictilisib; first compound 0.1 µM) | relative viability (Bosutinib + Pictilisib; first compound 1 µM) | relative viability (Bosutinib + Luminespib; first compound 0.01 µM) | relative viability (Bosutinib + Luminespib; first compound 0.03162 µM) | relative viability (Bosutinib + Luminespib; first compound 0.1 µM) | relative viability (Bosutinib + Luminespib; first compound 1 µM) | relative viability (Bosutinib + Palbociclib; first compound 0.01 µM) | relative viability (Bosutinib + Palbociclib; first compound 0.03162 µM) | relative viability (Bosutinib + Palbociclib; first compound 0.1 µM) | relative viability (Bosutinib + Palbociclib; first compound 1 µM) | relative viability (Bosutinib + Trametinib; first compound 0.01 µM) | relative viability (Bosutinib + Trametinib; first compound 0.03162 µM) | relative viability (Bosutinib + Trametinib; first compound 0.1 µM) | relative viability (Bosutinib + Trametinib; first compound 1 µM)
1 | NCI-H358 | 0.558 | 0.476 | 0.41 | 0.543 | 0.407 | 0.368 | 0.363 | 0.379 | 0.28 | 0.331 | 0.372 | 0.439 | 0.154 | 0.141 | 0.139 | 0.128 | 0.132 | 0.128 | 0.121 | 0.109
2 | NCI-H460 | 1.03 | 0.875 | 0.874 | 0.833 | 0.38 | 0.353 | 0.321 | 0.299 | 0.0343 | 0.0293 | 0.0274 | 0.0252 | 0.165 | 0.173 | 0.148 | 0.0817 | 0.17 | 0.135 | 0.157 | 0.0941
3 | NCI-H520 | 1.01 | 0.86 | 0.855 | 0.639 | 0.309 | 0.279 | 0.288 | 0.281 | 0.199 | 0.236 | 0.223 | 0.214 | 0.206 | 0.227 | 0.208 | 0.169 | 0.703 | 0.633 | 0.6 | 0.417
4 | NCI-H647 | 1.06 | 1.16 | 1.09 | 0.53 | 0.508 | 0.436 | 0.432 | 0.372 | 0.202 | 0.284 | 0.159 | 0.183 | 0.528 | 0.394 | 0.452 | 0.299 | 0.488 | 0.483 | 0.375 | 0.221
5 | NCI-H650 | 0.889 | 1.07 | 0.948 | 1.15 | 0.913 | 0.878 | 0.914 | 0.997 | 0.838 | 0.713 | 0.744 | 0.898 | 0.398 | 0.325 | 0.332 | 0.406 | 0.907 | 0.918 | 0.961 | 0.975
6 | NCI-H661 | 0.489 | 0.511 | 0.468 | 0.354 | 0.351 | 0.53 | 0.386 | 0.327 | 0.947 | 0.964 | 0.963 | 0.758 | 0.392 | 0.398 | 0.434 | 0.363 | 0.616 | 0.554 | 0.565 | 0.439
7 | NCI-H727 | 0.781 | 0.767 | 0.781 | 0.384 | 0.447 | 0.435 | 0.297 | 0.282 | 0.233 | 0.477 | 0.55 | 0.504 | 0.642 | 0.673 | 0.63 | 0.632 | 0.377 | 0.359 | 0.378 | 0.305
8 | NCI-H838 | 1.18 | 0.94 | 0.922 | 0.604 | 0.468 | 0.429 | 0.414 | 0.319 | 0.327 | 0.269 | 0.385 | 0.237 | 0.23 | 0.209 | 0.2 | 0.174 | 0.518 | 0.483 | 0.472 | 0.316
9 | NCI-H1355 | 1.01 | 1.04 | 1.09 | 0.957 | 0.465 | 0.545 | 0.572 | 0.412 | 0.752 | 0.691 | 0.761 | 0.566 | 0.415 | 0.396 | 0.386 | 0.372 | 0.474 | 0.425 | 0.45 | 0.419
10 | NCI-H1395 | 1.26 | 1.06 | 0.914 | 1.08 | 0.597 | 0.758 | 0.818 | 0.719 | 0.677 | 0.635 | 0.761 | 0.615 | 0.595 | 0.539 | 0.643 | 0.48 | 0.992 | 0.993 | 1.02 | 0.928
11 | NCI-H1437 | 0.89 | 0.798 | 0.784 | 0.702 | 0.465 | 0.395 | 0.54 | 0.483 | 1.02 | 1.11 | 1.1 | 1.03 | 0.332 | 0.281 | 0.317 | 0.343 | 0.486 | 0.403 | 0.53 | 0.413
12 | NCI-H1650 | 0.835 | 0.731 | 0.745 | 0.636 | 0.587 | 0.516 | 0.524 | 0.49 | 0.193 | 0.209 | 0.174 | 0.154 | 0.343 | 0.315 | 0.304 | 0.188 | 0.532 | 0.584 | 0.6 | 0.312
13 | NCI-H1651 | 0.923 | 0.877 | 0.767 | 0.823 | 0.579 | 0.62 | 0.62 | 0.687 | 0.738 | 0.942 | 0.812 | 0.902 | 0.506 | 0.535 | 0.507 | 0.534 | 0.805 | 0.801 | 0.829 | 0.757
14 | NCI-H1666 | 0.705 | 0.592 | 0.656 | 0.757 | 0.469 | 0.32 | 0.417 | 0.405 | 1.02 | 1.01 | 0.995 | 1.1 | 0.663 | 0.664 | 0.634 | 0.674 | 0.888 | 0.774 | 0.832 | 0.842
15 | NCI-H1734 | 1.17 | 1.07 | 0.977 | 1.06 | 0.507 | 0.427 | 0.447 | 0.447 | 0.172 | 0.181 | 0.217 | 0.196 | 0.334 | 0.367 | 0.365 | 0.299 | 0.693 | 0.711 | 0.726 | 0.591

Reference: the supplement of paper PMC10307832
